Source: ChEMBL document CHEMBL4725449, “Brain Penetrable Inhibitors of Ceramide Galactosyltransferase for the Treatment of Lysosomal Storage Disorders” (ACS Med Chem Lett, 2020)

Experiments:
[1] = Thermodynamic solubility of the compound […] at pH 7.4; assay type: physicochemical; conditions: read-out: Therm_solubility
[2] = biological target: T1, 2-hydroxyacylsphingosine 1-beta-galactosyltransferase (Homo sapiens, UniProt Q16880); test: Inhibition of UGT8 in human OE19 cells assessed as redcution in GalCer accumulation measured after 72 hrs by LC-MS/MS analysis; assay type: cell-based
T1 sequence (Q16880 whole entry): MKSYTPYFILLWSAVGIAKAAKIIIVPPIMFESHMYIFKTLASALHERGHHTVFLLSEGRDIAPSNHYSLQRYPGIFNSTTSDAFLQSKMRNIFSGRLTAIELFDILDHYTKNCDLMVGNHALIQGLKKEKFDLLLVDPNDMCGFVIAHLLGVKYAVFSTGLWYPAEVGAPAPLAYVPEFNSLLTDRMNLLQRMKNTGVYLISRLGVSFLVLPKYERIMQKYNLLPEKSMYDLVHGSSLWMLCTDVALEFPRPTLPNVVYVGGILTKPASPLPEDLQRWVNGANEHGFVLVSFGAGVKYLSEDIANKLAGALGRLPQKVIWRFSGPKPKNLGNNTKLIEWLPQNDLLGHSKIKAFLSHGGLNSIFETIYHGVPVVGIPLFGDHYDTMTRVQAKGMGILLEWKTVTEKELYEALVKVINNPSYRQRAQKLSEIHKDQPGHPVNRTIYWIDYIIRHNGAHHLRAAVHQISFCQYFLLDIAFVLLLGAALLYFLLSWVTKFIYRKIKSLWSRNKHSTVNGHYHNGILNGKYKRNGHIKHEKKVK

[3] = biological target: T2, UDP-glucuronosyltransferase 2B15 (Homo sapiens, UniProt P54855); test: Inhibition of UGT2B15 (unknown origin); assay type: ADME
T2 sequence (P54855 whole entry): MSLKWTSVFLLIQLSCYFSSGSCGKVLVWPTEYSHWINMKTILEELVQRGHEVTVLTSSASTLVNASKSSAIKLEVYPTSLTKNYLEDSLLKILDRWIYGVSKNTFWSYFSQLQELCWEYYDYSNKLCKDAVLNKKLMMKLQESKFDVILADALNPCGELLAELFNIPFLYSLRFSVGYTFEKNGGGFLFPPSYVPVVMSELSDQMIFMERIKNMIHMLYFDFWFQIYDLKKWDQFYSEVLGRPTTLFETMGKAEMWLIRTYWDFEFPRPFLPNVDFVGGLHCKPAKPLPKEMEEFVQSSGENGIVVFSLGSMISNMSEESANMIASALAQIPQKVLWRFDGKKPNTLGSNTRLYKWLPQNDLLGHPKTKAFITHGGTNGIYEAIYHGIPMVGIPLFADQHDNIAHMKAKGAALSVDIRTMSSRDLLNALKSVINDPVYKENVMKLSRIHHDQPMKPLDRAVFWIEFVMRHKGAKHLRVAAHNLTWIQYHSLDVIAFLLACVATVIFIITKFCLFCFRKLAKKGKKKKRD

[4] = Intrinsic clearance in human liver microsomes; assay type: ADME, Microsome; conditions: read-out: CLH
[5] = Ratio of drug concentration in brain to plasma in C57BL/6 mouse measured at 5 mins; assay type: ADME, organism-based; conditions: read-out: BPR
[6] = Clearance in C57BL/6 mouse at 1 mg/kg, iv; assay type: ADME, organism-based; conditions: in vivo
[7] = Tmax in C57BL/6 mouse at 3 mg/kg, po; assay type: ADME, organism-based; conditions: in vivo
[8] = Clearance in Beagle dog at 1 mg/kg, iv; assay type: ADME, organism-based, Canis lupus familiaris; conditions: in vivo
[9] = Volume of distribution at steady state in Beagle dog at 1 mg/kg, iv; assay type: ADME, organism-based, Canis lupus familiaris; conditions: in vivo, read-out: Vdss
[10] = (§1) In vivo inhibition of SFT de novo synthesis in po dosed adult C57BL/6 mouse kidney assessed as reduction in [13C] galactose incorporation into SFT treated with compound for 1 hr prior to intraperitoneal injection of [13C] galactose measured after 5 hrs of compound administration; assay type: functional
Mus musculus = test: as §1; assay type: functional
[11] = as §1, with “of GalCer” for “of SFT”, “in” for “in po dosed”, “into GalCer at 0.3 mg/kg, po via gavage” for “into SFT”, “administration relative to control” for “administration”; assay type: functional
[12] = as §1, with “of GalCer” for “of SFT”, “in” for “in po dosed”, “into GalCer at 30 mg/kg, po via gavage” for “into SFT”, “administration relative to control” for “administration”; assay type: functional
[13] = (§2) In vivo inhibition of SFT de novo synthesis in adult C57BL/6 mouse kidney assessed as reduction in [13C] galactose incorporation into SFT at 3 mg/kg, po via gavage treated with compound for 1 hr prior to intraperitoneal injection of [13C] galactose measured after 5 hrs of compound administration relative to control; assay type: functional
[14] = as §2, with “at 30” for “at 3”; assay type: functional
[15] = (§3) In vivo inhibition of GalCer de novo synthesis in PN14 to PN21 days C57BL/6 mouse brain assessed as reduction in [13C] galactose incorporation into GalCer at 3 mg/kg, po bid for 2 days and single dose at day 3 treated 1 hr prior to intraperitoneal injection of [13C] galactose measured after 5 hrs of last dose relative to control; assay type: functional; conditions: C57BL/6, 72 h, time 3 day
[16] = as §3, with “at 30” for “at 3”; assay type: functional; conditions: C57BL/6, 72 h, time 3 day

## CNC(=O)c1csc2c(C(F)(F)F)cc(N3CCC(OC(=O)N[C@@H](C)COC(F)(F)F)CC3)nc12
[1]
  solubility thermodynamic: < 0.5 µM
[2]
  IC50: 0.2 nM
[3]
  IC50: > 10000 nM
[4]
  microsomal CLint: 73 µL/min/mg
[5]
  Kp at 5 min: 0.69
[6]
  clearance: 24.7 mL/min/kg
[7]
  Tmax: 30 min
[8]
  clearance: 6.32 mL/min/kg
[9]
  Vd: 3.32 L/kg
[10]
  ED50: 1 mg/kg
Mus musculus
  inhibition: Dose-dependent effect
[11]
  inhibition in vivo at 0.3 mg/kg: 19%
[12]
  inhibition in vivo at 30 mg/kg: 90%
[13]
  inhibition in vivo at 3 mg/kg: 85%
[14]
  inhibition in vivo at 30 mg/kg: 99%
[15]
  inhibition in vivo at 3 mg/kg: 90%
[16]
  inhibition in vivo at 30 mg/kg: 94%
